Measured values reported in ChEMBL document CHEMBL1201862, “PubChem BioAssay data set” (2004).
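Step 1: Grow cells in 96-well plates. Step 2: Expose to compound for 48 hours at 5 concentrations. Step 3: Interpolate endpoints linearly; if unreached, use highest concentration. The concentration for 50% growth inhibition is given as GI50.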 Calls of active or inactive are those of the source. No stated cut-off is given here; in the data, active = GI50 up to about 1.1 µM and inactive = higher.

What was measured:
Assay in all cases: NCI anticancer screen, dose series, 48 h
SR = system: SR
NCI-H460 = system: NCI-H460
HOP-62 = system: HOP-62
ACHN = system: ACHN
Hs-578T = system: Hs-578T
OVCAR-3 = system: OVCAR-3
K562 = system: K562
NCI-H522 = system: NCI-H522
CAKI-1 = system: CAKI-1
UACC-257 = system: UACC-257
NCI-H226 = system: NCI-H226
TK-10 = system: TK-10
RPMI-8226 = system: RPMI-8226
DU-145 = system: DU-145
OVCAR-4 = system: OVCAR-4
IGROV-1 = system: IGROV-1
KM12 = system: KM12
CCRF-CEM = system: CCRF-CEM
U-251 = system: U-251
OVCAR-5 = system: OVCAR-5
UACC-62 = system: UACC-62
HL-60 = system: HL-60
MOLT-4 = system: MOLT-4
SNB-75 = system: SNB-75
OVCAR-8 = system: OVCAR-8
HOP-92 = system: HOP-92
NCI/ADR-RES = system: NCI/ADR-RES
M14 = system: M14
NCI-H23 = system: NCI-H23
SF-268 = system: SF-268
RXF 393 = system: RXF 393
HT-29 = system: HT-29
SW-620 = system: SW-620
A498 = system: A498
HCT-15 = system: HCT-15
SK-OV-3 = system: SK-OV-3
SN12C = system: SN12C
SF-295 = system: SF-295
MDA-MB-435 = system: MDA-MB-435
HCT-116 = system: HCT-116
A549 = system: A549
786-0 = system: 786-0
SF-539 = system: SF-539
MDA-MB-231 = system: MDA-MB-231
LOX IMVI = system: LOX IMVI
COLO 205 = system: COLO 205
PC-3 = system: PC-3
MDA-N = system: MDA-N
Malme-3M = system: Malme-3M
SK-MEL-5 = system: SK-MEL-5
EKVX = system: EKVX
SK-MEL-2 = system: SK-MEL-2
HCC 2998 = system: HCC 2998
T47D = system: T47D
UO-31 = system: UO-31
SK-MEL-28 = system: SK-MEL-28
SNB-19 = system: SNB-19
MCF7 = system: MCF7

## O=[N+]([O-])c1ccc2[nH]nc(OCc3ccccn3)c2c1
SR
  GI50: > 100 µM (inactive)
NCI-H460
  GI50: > 100 µM (inactive)
HOP-62
  GI50: > 100 µM (inactive)
ACHN
  GI50: > 100 µM (inactive)
Hs-578T
  GI50: 35.2 µM (inactive)
OVCAR-3
  GI50: 61 µM (inactive)
K562
  GI50: > 100 µM (inactive)
NCI-H522
  GI50: > 100 µM (inactive)
CAKI-1
  GI50: > 100 µM (inactive)
UACC-257
  GI50: > 100 µM (inactive)
NCI-H226
  GI50: > 100 µM (inactive)
TK-10
  GI50: 47.2 µM (inactive)
RPMI-8226
  GI50: > 100 µM (inactive)
DU-145
  GI50: > 100 µM (inactive)
OVCAR-4
  GI50: > 100 µM (inactive)
IGROV-1
  GI50: > 100 µM (inactive)
KM12
  GI50: > 100 µM (inactive)
CCRF-CEM
  GI50: > 100 µM (inactive)
U-251
  GI50: 99.8 µM (inactive)
OVCAR-5
  GI50: > 100 µM (inactive)
UACC-62
  GI50: > 100 µM (inactive)
HL-60
  GI50: > 100 µM (inactive)
MOLT-4
  GI50: > 100 µM (inactive)
SNB-75
  GI50: 31.5 µM (inactive)
OVCAR-8
  GI50: > 100 µM (inactive)
HOP-92
  GI50: 35.7 µM (inactive)
NCI/ADR-RES
  GI50: > 100 µM (inactive)
M14
  GI50: > 100 µM (inactive)
NCI-H23
  GI50: > 100 µM (inactive)
SF-268
  GI50: > 100 µM (inactive)
RXF 393
  GI50: > 100 µM (inactive)
HT-29
  GI50: > 100 µM (inactive)
SW-620
  GI50: > 100 µM (inactive)
A498
  GI50: > 100 µM (inactive)
HCT-15
  GI50: > 100 µM
SK-OV-3
  GI50: 73.8 µM (inactive)
SN12C
  GI50: > 100 µM (inactive)
SF-295
  GI50: 38.8 µM (inactive)
MDA-MB-435
  GI50: > 100 µM (inactive)
HCT-116
  GI50: > 100 µM (inactive)
A549
  GI50: > 100 µM (inactive)
786-0
  GI50: > 100 µM (inactive)
SF-539
  GI50: > 100 µM (inactive)
MDA-MB-231
  GI50: > 100 µM (inactive)
LOX IMVI
  GI50: > 100 µM (inactive)
COLO 205
  GI50: > 100 µM (inactive)
PC-3
  GI50: > 100 µM (inactive)
MDA-N
  GI50: > 100 µM (inactive)
Malme-3M
  GI50: > 100 µM (inactive)
SK-MEL-5
  GI50: > 100 µM (inactive)
EKVX
  GI50: > 100 µM (inactive)
SK-MEL-2
  GI50: 82.2 µM (inactive)
HCC 2998
  GI50: > 100 µM (inactive)
T47D
  GI50: 47 µM (inactive)
UO-31
  GI50: > 100 µM (inactive)
SK-MEL-28
  GI50: > 100 µM (inactive)
SNB-19
  GI50: 50.5 µM (inactive)

## CN1CCN(C2=C(Cl)C3(OCCS3)C(F)(F)C2(F)F)CC1 (configuration not stated)
SR
  GI50: > 100 µM (inactive)
HOP-62
  GI50: 46.9 µM (inactive)
ACHN
  GI50: > 100 µM (inactive)
Hs-578T
  GI50: > 100 µM (inactive)
OVCAR-3
  GI50: 57 µM (inactive)
K562
  GI50: 29.8 µM (inactive)
MCF7
  GI50: > 100 µM (inactive)
NCI-H522
  GI50: > 100 µM (inactive)
CAKI-1
  GI50: > 100 µM (inactive)
UACC-257
  GI50: 27.2 µM (inactive)
NCI-H226
  GI50: > 100 µM (inactive)
TK-10
  GI50: > 100 µM (inactive)
RPMI-8226
  GI50: 44.5 µM (inactive)
DU-145
  GI50: > 100 µM (inactive)
OVCAR-4
  GI50: > 100 µM (inactive)
IGROV-1
  GI50: > 100 µM (inactive)
CCRF-CEM
  GI50: > 100 µM (inactive)
U-251
  GI50: 39.8 µM (inactive)
OVCAR-5
  GI50: > 100 µM (inactive)
UACC-62
  GI50: > 100 µM (inactive)
HL-60
  GI50: 64.4 µM (inactive)
MOLT-4
  GI50: 45.4 µM (inactive)
SNB-75
  GI50: 51.3 µM (inactive)
OVCAR-8
  GI50: > 100 µM (inactive)
HOP-92
  GI50: 66.5 µM (inactive)
NCI/ADR-RES
  GI50: 79.6 µM (inactive)
M14
  GI50: > 100 µM (inactive)
NCI-H23
  GI50: 27.1 µM (inactive)
SF-268
  GI50: > 100 µM (inactive)
RXF 393
  GI50: > 100 µM (inactive)
HT-29
  GI50: 39.4 µM (inactive)
SW-620
  GI50: > 100 µM (inactive)
A498
  GI50: > 100 µM (inactive)
HCT-15
  GI50: 79.6 µM
SK-OV-3
  GI50: > 100 µM (inactive)
SN12C
  GI50: > 100 µM (inactive)
SF-295
  GI50: 48.2 µM (inactive)
MDA-MB-435
  GI50: > 100 µM (inactive)
HCT-116
  GI50: > 100 µM (inactive)
A549
  GI50: 95.9 µM (inactive)
786-0
  GI50: > 100 µM (inactive)
SF-539
  GI50: > 100 µM (inactive)
MDA-MB-231
  GI50: 82 µM (inactive)
LOX IMVI
  GI50: 56 µM (inactive)
COLO 205
  GI50: 43.4 µM (inactive)
MDA-N
  GI50: > 100 µM (inactive)
Malme-3M
  GI50: > 100 µM (inactive)
SK-MEL-5
  GI50: 16.6 µM (inactive)
EKVX
  GI50: > 100 µM (inactive)
SK-MEL-2
  GI50: > 100 µM (inactive)
T47D
  GI50: 9.35 µM (inactive)
UO-31
  GI50: 55 µM (inactive)
SNB-19
  GI50: > 100 µM (inactive)

## C[n+]1c(-c2ccc(/C=N/Nc3ccnc(N/N=C/c4ccc(-c5cn6ccccc6[n+]5C)cc4)n3)cc2)cn2ccccc21
SR
  GI50: 59.4 µM (inactive)
NCI-H460
  GI50: 31.3 µM (inactive)
HOP-62
  GI50: 43.2 µM (inactive)
ACHN
  GI50: 25.3 µM (inactive)
Hs-578T
  GI50: 30.5 µM (inactive)
NCI-H522
  GI50: > 100 µM (inactive)
UACC-257
  GI50: 24.2 µM (inactive)
TK-10
  GI50: 41.8 µM (inactive)
RPMI-8226
  GI50: 23.5 µM (inactive)
OVCAR-4
  GI50: > 100 µM (inactive)
IGROV-1
  GI50: 39.3 µM (inactive)
KM12
  GI50: 32.6 µM (inactive)
OVCAR-5
  GI50: 60.4 µM (inactive)
HL-60
  GI50: 24.5 µM (inactive)
MOLT-4
  GI50: > 100 µM (inactive)
SNB-75
  GI50: 34.7 µM (inactive)
OVCAR-8
  GI50: 82.4 µM (inactive)
NCI/ADR-RES
  GI50: 31.9 µM (inactive)
M14
  GI50: 31.2 µM (inactive)
SF-268
  GI50: 88.9 µM (inactive)
HT-29
  GI50: 24.7 µM (inactive)
SW-620
  GI50: 71.1 µM (inactive)
HCT-15
  GI50: 98.9 µM
SK-OV-3
  GI50: > 100 µM (inactive)
SN12C
  GI50: > 100 µM (inactive)
SF-295
  GI50: 17.9 µM (inactive)
MDA-MB-435
  GI50: > 10 µM (inactive)
HCT-116
  GI50: 20.7 µM (inactive)
A549
  GI50: > 100 µM (inactive)
786-0
  GI50: 47.2 µM (inactive)
SF-539
  GI50: 20 µM (inactive)
MDA-MB-231
  GI50: > 100 µM (inactive)
COLO 205
  GI50: 94 µM (inactive)
PC-3
  GI50: > 100 µM (inactive)
MDA-N
  GI50: 28.9 µM (inactive)
SK-MEL-5
  GI50: 56.4 µM (inactive)
EKVX
  GI50: > 100 µM (inactive)
HCC 2998
  GI50: > 100 µM (inactive)
T47D
  GI50: 54.8 µM (inactive)
UO-31
  GI50: 21.2 µM (inactive)
SK-MEL-28
  GI50: 34.7 µM (inactive)
SNB-19
  GI50: 42.8 µM (inactive)
